Assay results as given in patent US20250084040A1, “SUBSTITUTED HETEROCYCLES AS c-MYC TARGETING AGENTS” (Northwestern University, priority 2018, published 2025).
One block for each molecule: values may come before it.

How the values were obtained:
MYC/Max binding to DNA = MYC/Max binding to DNA (Homo sapiens, UniProt P01106); experiment: Electrophoretic mobility shift assay (EMSA), MYC/Max binding to DNA
Method: We also tested our best hit compound Min9 (NUCC-0176234) and newly synthesized analogs for effects of these compounds on MYC/Max binding to DNA in electrophoretic mobility shift assays (EMSAs). (See FIG. 5a and FIG. 5b). We expected the active compounds to impair MYC/Max binding to DNA. Several strucutural analogs of Min9 were tested over multiple doses for inhibiting MYC-DNA binding and we observed a dose-dependent inhibition. (See FIG. 5c).

[1] = test system: cMYC wild-type (WT) and cMYC KO line; experiment: Cell viability, cMYC wild-type (WT) versus cMYC KO line; format: cell-based; settings: cMYC WT vs cMYC KO line
Method: Min9 (NUCC-0176234) was also tested in a cell viability assay against a cMYC wild-type (WT) and a cMYC KO line.

DNA damage = experiment: rH2AX staining assay for DNA damage; format: cell-based
Method: Min9 (NUCC-0176234) was also tested for its ability to cause DNA damage in an rH2AX staining assay. We would not expect cMYC-targeting agents to produce significant DNA damage. Compounds that act directly against DNA such as doxorubicin do however. […] (See FIG. 6).

[2] = In vitro metabolism, mouse S9 fraction; format: in vitro ADME
Method: (§1) In vitro metabolism of NUCC-176242 and NUCC-176248 were tested using mouse liver microsomes and a mouse S9 fraction. (See FIG. 9).

[3] = test system: wild type and MYC knockout rat fibroblasts; experiment: Growth inhibition of MYC wild type versus MYC knockout rat fibroblasts; format: cell-based
Source text: We tested the top 13 active compounds in the first screen assay. […] More than half of the tested compounds show better growth inhibitory effect on MYC WT compared to MYC KO cells.

[4] = In vitro metabolism, mouse liver microsomes; format: in vitro ADME; settings: % remaining of compound after 60 min treatment with mouse liver microsomes
Method: as §1

MycCap cells = experiment: Cell viability of MycCap cells; format: cell-based
PC12 cells = experiment: Cell viability / proliferation of PC12 cells (Myc independent); format: cell-based
Method: (§2) Proliferation Assay (FIG. 11). PC3 prostate cancer cell line with high Myc level and PC12 pheochromocytoma tumor cell line with non functional Max protein, which is not dependent on Myc-Max complex, were phased from ATCC. Cells were plated in 96 well plate at 1000 cells per well, and Myc inhibitor 361 at various concentrations was added to the cells next day. After 3 days of treatment, fresh medium with 361 were added again, and cell viability was measured by MTS assay at day 5 after the treatment. (See FIG. 11).

MV411 cells = experiment: AML xenograft model (MV411), combination with Ara-C; format: in vivo, mouse; settings: AML mice xenograft model
Method: Myc inhibitor combination treatment with Ara-C in AML xenograft model (FIG. 17). CB17 SCID mice were inoculated with MV411 cells at the density of 5×10^6 suspended in PBS and matrigel (1:1). The mice were randomized based on tumor volume into 6 different groups after the tumor reached ˜200 to 500 mm^3. The mice were treated either with vehicle, NUO31, NU975 alone or in combination with cytarabine (Ara-C). […] (See FIG. 17).

[5] = test system: MYC transcriptional activity; experiment: MYC E-Box luciferase reporter assay; format: cell-based; settings: MycCap Ebox-luc, 4 hours of treatment
Method: To test the compounds, we evaluated the in silico hits in a MYC E-Box luciferase reporter assay to measure the effects of these compounds (referred to as Min-1 to Min-32) on MYC transcriptional activity. […] (See FIG. 2).
Myc Ebox luciferase reporter assay (FIG. 12). MycCap cells stably expressing luciferase with CMV promoter (MycCap-luc) or c-Myc E-box-luciferase reporter (MycCap Ebox-luc) were plated at 10000 cells per well in 96 well white-wall plate. Serial dilutions of 361 were treated next day. At 4 hours of treatment, luminescence signal was determined immediately after adding 150 μg/ml of Luciferin to the well. (See FIG. 12).

[6] = test system: PC3 prostate cancer cell line; experiment: Proliferation assay (MTS), PC3 prostate cancer cell line; format: cell-based; settings: day 5
Method: as §2

MycCap tumor [7] = experiment: MycCap FVB allograft model; format: in vivo; settings: mouse prostate cancer allograft model, intra-peritoneally
Method: MycCap FVB allograft model (FIG. 15). FVB mice were inoculated with 1×10^6 of MycCap cells in 100 ul of matrigel subcutaneously on both flanks of the mice. When tumor size reached average size of 150 mm^3, mice were randomized based on tumor volume to 2 groups. Mice were administered with 50 mg/kg of 361 or vehicle (Veh) twice daily intra-peritoneally for two days. The treatment was suspended for 10 day, and initiated the treatment with a lower dose […] daily for another 9 days. Tumor size was measured twice a week during the experiment. (See FIG. 15).

MycCap tumor [8] = experiment: MycCap FVB allograft model, combination with anti-PD-1 immunotherapy; format: in vivo, mouse; settings: combination with Immunotherapy (anti-PD-1 antibody)
Method: Myc inhibitor 361 combination with Immunotherapy (FIG. 16). MycCap FVB allograft model was treated with 361 (50 mg/kg) for two days, following by two days of anti-PD-1 antibody (100 ug/day), and kept this 4-day treatment cycle for 4 cycles. (See FIG. 16).

Chain of MYC/Max binding to DNA (P01106 whole entry): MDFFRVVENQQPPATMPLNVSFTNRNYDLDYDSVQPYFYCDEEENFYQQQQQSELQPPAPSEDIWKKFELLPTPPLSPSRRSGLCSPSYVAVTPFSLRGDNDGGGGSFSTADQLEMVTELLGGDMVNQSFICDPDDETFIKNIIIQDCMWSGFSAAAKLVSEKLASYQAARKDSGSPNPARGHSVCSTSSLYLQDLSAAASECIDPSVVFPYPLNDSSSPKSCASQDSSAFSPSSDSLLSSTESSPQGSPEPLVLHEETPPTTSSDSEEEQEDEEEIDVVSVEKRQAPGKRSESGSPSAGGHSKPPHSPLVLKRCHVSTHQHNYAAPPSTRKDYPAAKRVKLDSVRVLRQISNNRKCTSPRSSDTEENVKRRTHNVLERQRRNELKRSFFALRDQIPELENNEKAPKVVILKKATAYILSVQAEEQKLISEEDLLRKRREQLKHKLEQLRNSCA

inhibition of MYC/Max binding to DNA (in words) (MYC/Max binding to DNA): prevent c-MYC/DNA binding
Compound: CCc1ccc(Oc2c[nH]nc2-c2ccc(OCc3cnn(-c4ccccc4)c3)cc2O)cc1 [NUCC-0176234]
cell viability, WT line versus KO cells [1]: reduces cell viability much more in the WT line than the KO cells | DNA damage (DNA damage): essentially no DNA damage

Compound: CCc1ccc(Oc2c(-c3ccc(OCc4ccc(Cl)cc4)cc3O)n[nH]c2C(F)(F)F)cc1 [NUCC-0176242]
metabolism by mouse S9 fraction [2]: significantly metabolism by the mouse S9 fraction versus NUCC-176248

Compound: CCc1ccc(Oc2c(-c3ccc(OCc4ccc(Cl)cc4)cc3O)nn(C)c2C(F)(F)F)cc1 [NUCC-0176248]
selectivity of growth inhibition, MYC WT compared to MYC KO cells [3]: high specificity

Compound: CCc1ccc(Oc2c(-c3ccc(OCc4ccncc4)cc3O)n[nH]c2C(F)(F)F)cc1 [NUCC-0176250]
selectivity of growth inhibition, MYC WT compared to MYC KO cells [3]: great selectivity

MLM % at 60 min [4]: 30.5%
Compound: Oc1c(-c2cc(C(F)(F)F)n[nH]2)ccc(OCCN2CCCC2)c1-c1cc(C(F)(F)F)cc(C(F)(F)F)c1 [NUCC-0201032]

MLM % at 60 min [4]: 66.6%
Compound: CCCCCCOc1ccc(-c2cc(C(F)(F)F)n[nH]2)c(O)c1-c1cc(C(F)(F)F)cc(C(F)(F)F)c1 [NUCC-0201196]

MLM % at 60 min [4]: 52.7%
Compound: CCCCCCOc1ccc(-c2cc(C(F)(F)F)nn2C)c(O)c1-c1cncc(C#N)c1 [NUCC-0201207]

MLM % at 60 min [4]: 10.3%
Compound: CCCCOc1ccc(-c2cc(C(F)(F)F)n(C)n2)c(O)c1-c1cncc(C(F)(F)F)c1 [NUCC-0201209]

MLM % at 60 min [4]: 75.8%
Compound: Oc1c(-c2cc(C(F)(F)F)[nH]n2)ccc(Oc2ccc(Cl)cc2)c1-c1cc(C(F)(F)F)cc(C(F)(F)F)c1 [NUCC-0201223]

Compound: CNC(=O)c1cc(-c2ccc(OCc3ccc(Cl)cc3)c(-c3cc(C(F)(F)F)cc(C(F)(F)F)c3)c2O)nn1C [NUCC-0201224]
IC50 (MycCap cells): 1.1 µM | IC50 (PC12 cells): 11.6 µM

Compound: CCCCOc1ccc(-c2cc(C(F)(F)F)n[nH]2)c(O)c1-c1cc(C(F)(F)F)cc(C(F)(F)F)c1 [compound 031]
anti-tumor effect with Ara-C (MV411 cells): significant synergic anti-tumor effect

Compound: Cn1nc(C(F)(F)F)cc1-c1ccc(OCc2ccc(Cl)cc2)c(-c2cc(C(F)(F)F)cc(C(F)(F)F)c2)c1O [compound 361]
c-Myc transcription activity [5]: inhibits c-Myc transcription activity as an early event before affecting cell viability | proliferation of Myc dependent cell line PC3 [6]: specifically inhibits proliferation | tumor volume (MycCap tumor [7]): reduces tumor volume | tumor progression (MycCap tumor [8]): significantly blocks tumor progression

Compound: Cn1nc(C(F)(F)F)cc1-c1ccc(OCc2ccc(Cl)cc2)c(-c2ccc(Cl)c(C(F)(F)F)c2)c1O [compound 975]
anti-tumor effect with Ara-C (MV411 cells): significant synergic anti-tumor effect
